# ChEMBL document CHEMBL1143666 (J Med Chem, 2007)
# How the values were obtained:
# Heat shock protein HSP90 [1] = molecular target: T1, Heat shock protein HSP90 (Homo sapiens, UniProt P07900+P08238); details: mcf7
# Description: Inhibition of human recombinant HSP90 in MCF7 cells assessed as Her2 degradation
# MCF7 = assay: Antiproliferative activity against human MCF7 cells by MTS assay; type: functional, cell-based
# BT-474 = assay: Antiproliferative activity against human BT474 cells by MTS assay; type: functional, cell-based
# Heat shock protein HSP90 [2] = molecular target: T1, Heat shock protein HSP90; details: mcf7; remark: listed apart in the source
# Description: Binding affinity to human recombinant HSP90 in MCF7 cell lysates assessed as inhibition of biotinylated-geldanamycin binding
# Heat shock protein HSP90 [3] = molecular target: T1, Heat shock protein HSP90
# Description: Binding affinity to human recombinant HSP90 assessed as inhibition of biotinylated-geldanamycin binding
# RPTEC [4] = assay: Antiproliferative activity against human RPTEC; type: cell-based
# HT-29 = assay: Antiproliferative activity against human HT29 cells; type: functional, cell-based
# NCI-N87 [5] = assay: Antitumor activity in human N87 cells xenografted mouse assessed as tumor growth inhibition at 90 mg/kg, ip administered weekly 5-day-on and 2-day-off schedule for 5 weeks; type: functional; details: route intraperitoneal, read-out: TGI
# [6] = Aqueous solubility of the compound; type: physicochemical; details: aqueous medium
# RPTEC [7] = assay: Selectivity index, ratio of IC50 for human RPTEC cells to IC50 for HT29 cells; type: functional, cell-based
# RPTEC [8] = assay: Selectivity index, ratio of IC50 for human RPTEC cells to IC50 for MCF7 cells; type: functional, cell-based
# Heat shock protein HSP90 [9] = molecular target: T1, Heat shock protein HSP90; details: ndf
# Description: Binding affinity to HSP90 in human NDF cell lysates assessed as inhibition of biotinylated-geldanamycin binding
# Heat shock protein HSP90 [10] = molecular target: T1, Heat shock protein HSP90; details: mcf7; remark: listed apart in the source
# Description: Selectivity for HSP90 in MCF7 cells over HSP90 in NDF cells
# [11] = Solubility in simulated gastric fluid at pH 2.0; type: physicochemical
# [12] = Solubility in simulated intestinal fluid at pH 6.5; type: physicochemical
# [13] = Solubility in mouse serum at pH 7.4; type: ADME, cell-free
# [14] = Cmax in BALB/c mouse at 100 mg/kg, po; type: ADME, organism-based; design: dose 100 mg/kg, route oral; details: in vivo
# [15] = Tmax in BALB/c mouse at 100 mg/kg, po; type: ADME, organism-based; design: dose 100 mg/kg, route oral; details: in vivo
# [16] = AUC in BALB/c mouse at 100 mg/kg, po; type: ADME, organism-based; design: dose 100 mg/kg, route oral; details: plasma
# [17] = Half life in BALB/c mouse at 100 mg/kg, po; type: ADME, organism-based; design: dose 100 mg/kg, route oral; details: in vivo
# Liver microsomes = assay: Metabolic stability in human liver microsomes; type: ADME, Microsome
# NCI-N87 [18] = assay: Antitumor activity in human N87 cells xenografted mouse assessed as tumor growth inhibition at 60 mg/kg, po administered weekly 5-day-on and 2-day-off schedule for 5 weeks; type: functional; details: read-out: TGI
# NCI-N87 [19] = assay: Antitumor activity in human N87 cells xenografted mouse assessed as tumor growth inhibition at 125 mg/kg, po administered weekly 5-day-on and 2-day-off schedule for 5 weeks; type: functional; details: read-out: TGI
SMILES,IC50 (Heat shock protein HSP90 [1]),IC50 (MCF7),IC50 (BT-474),IC50 (Heat shock protein HSP90 [2]),other results
COc1cc(Cn2cnc3c(N)nc(N)nc32)c(Br)c(OC)c1OC,17000 nM,–,–,–,–
COc1cc(Cn2cnc3c(Cl)nc(N)nc32)cc(OC)c1OC,2000 nM,–,–,–,–
COc1cc(Cn2cnc3cnc(N)nc32)c(Br)c(OC)c1OC,50000 nM,–,–,–,–
COc1c(C)c[n+]([O-])c(Cn2cnc3c(Cl)nc(N)nc32)c1C,80 nM,100 nM,150 nM,30 nM,IC50 (Heat shock protein HSP90 [3]): 800 nM
COc1cc(Cn2cnc3c(OC)nc(N)nc32)c(Br)c(OC)c1OC,45000 nM,–,–,–,–
Cc1cnc(Cn2cnc3c(Cl)nc(N)nc32)c(C)c1[N+](=O)[O-],1000 nM,–,–,–,–
C=CCNC1=C2C[C@@H](C)C[C@H](OC)[C@H](O)[C@@H](C)/C=C(\C)[C@H](OC(N)=O)[C@@H](OC)/C=C\C=C(/C)C(=O)NC(=CC1=O)C2=O [TANESPIMYCIN],–,10 nM,10 nM,–,IC50 (RPTEC [4]): 100 nM; IC50 (HT-29): 2 nM; inhibition in vivo at 90 mg/kg (NCI-N87 [5]): 70%
Cc1cnc(Cn2cnc3c(Cl)nc(N)nc32)c(C)c1[S+](C)[O-] (stereo unspecified),> 10000 nM,–,–,10000 nM,–
COc1ccc(OC)c(Cn2cnc3c(Cl)nc(N)nc32)c1,3000 nM,–,–,–,–
COc1cc(Cn2cnc3c(Cl)nc(N)nc32)c(Cl)c(OC)c1OC,50 nM,–,–,–,solubility [6]: < 1 µg/mL
COc1cc(Cn2cnc3c(Cl)nc(N)nc32)c(I)c(OC)c1OC,340 nM,–,–,–,–
COc1cc(Cn2cnc3c(S)nc(N)nc32)c(Br)c(OC)c1OC,100000 nM,–,–,–,–
COc1c(C)c(Cl)nc(Cn2cnc3c(Cl)nc(N)nc32)c1C,90 nM,500 nM,500 nM,25 nM,–
Cc1cnc(Cn2cnc3c(Cl)nc(N)nc32)c(C)c1C,42 nM,300 nM,80 nM,35 nM,–
COc1cc(Cn2cnc3c(Br)nc(N)nc32)c(Br)c(OC)c1OC,55 nM,–,–,–,–
CCOc1c(C)cnc(Cn2cnc3c(Cl)nc(N)nc32)c1C,1500 nM,–,–,–,–
Cc1cnc(Cn2cnc3c(Cl)nc(N)nc32)c(C)c1,7500 nM,–,–,4000 nM,–
Cc1cnc(Cn2cnc3c(Cl)nc(N)nc32)c(C)c1Br,15 nM,30 nM,50 nM,2 nM,IC50 (RPTEC [4]): 1300 nM; IC50 (HT-29): 130 nM; selectivity index (RPTEC [7]): 10; selectivity index (RPTEC [8]): 43; IC50 (Heat shock protein HSP90 [9]): 800 nM; IC50 (Heat shock protein HSP90 [10]): 400000 nM
COc1c(C)ncc(Cn2cnc3c(Cl)nc(N)nc32)c1C.Cl,20 nM,150 nM,50 nM,18 nM,solubility [11]: 451 µg/mL; solubility [12]: 234 µg/mL; solubility [13]: 186 µg/mL; Cmax [14]: 28200 ng/mL; Tmax [15]: 6 min; AUC [16]: 9000 ng·h/mL; half-life [17]: 54 min; Stability (Liver microsomes): 83%; inhibition in vivo at 60 mg/kg (NCI-N87 [18]): 83%; IC50 (Heat shock protein HSP90 [3]): 900 nM
Cc1cnc(Cn2cnc3c(Cl)nc(N)nc32)c(C)c1OC(C)C,1500 nM,–,–,–,–
COc1cc(Cn2cnc3c(O)nc(N)nc32)c(Cl)c(OC)c1OC,700 nM,–,–,–,–
COc1cc(Cn2cnc3c(Cl)nc(N)nc32)c(Br)c(OC)c1OC,70 nM,–,–,–,–
Cc1cnc(Cn2cnc3c(Cl)nc(N)nc32)c(C)c1N,5800 nM,–,–,–,–
Cc1cnc(Cn2cnc3c(Cl)nc(N)nc32)c(C)c1I,9 nM,30 nM,30 nM,3 nM,IC50 (RPTEC [4]): 150 nM; IC50 (HT-29): 23 nM; selectivity index (RPTEC [7]): 7; selectivity index (RPTEC [8]): 5; IC50 (Heat shock protein HSP90 [9]): 1000 nM; IC50 (Heat shock protein HSP90 [10]): 333000 nM
Cc1cnc(Cn2cnc3c(Cl)nc(N)nc32)c(C)c1O,100000 nM,–,–,–,–
C#CCCCn1c(Cc2cc(OC)c(OC)c(OC)c2Cl)nc2c(N)nc(F)nc21,–,1200 nM,–,–,–
COc1cc(Cn2cnc3c(C)nc(N)nc32)c(Cl)c(OC)c1OC,1800 nM,–,–,–,–
COc1c(C)cnc(Cn2cnc3c(Cl)nc(N)nc32)c1C.Cl,–,100 nM,100 nM,–,IC50 (RPTEC [4]): 600 nM; IC50 (HT-29): 130 nM; selectivity index (RPTEC [7]): 5; selectivity index (RPTEC [8]): 6; solubility [11]: 240 µg/mL; solubility [12]: 87 µg/mL; solubility [13]: 176 µg/mL; Cmax [14]: 10000 ng/mL; Tmax [15]: 6 min; AUC [16]: 4800 ng·h/mL; half-life [17]: 48 min; Stability (Liver microsomes): 86%; inhibition in vivo at 125 mg/kg (NCI-N87 [19]): 87%
CSc1c(C)cnc(Cn2cnc3c(Cl)nc(N)nc32)c1C,27 nM,500 nM,90 nM,40 nM,IC50 (RPTEC [4]): 2300 nM; IC50 (HT-29): 200 nM; selectivity index (RPTEC [7]): 12; selectivity index (RPTEC [8]): 5
Cc1cnc(Cn2cnc3c(Cl)nc(N)nc32)c(C)c1Cl,35 nM,100 nM,300 nM,10 nM,IC50 (RPTEC [4]): 5000 nM; IC50 (HT-29): 500 nM; selectivity index (RPTEC [7]): 10; selectivity index (RPTEC [8]): 50
